Laboratory results as given in patent publication US6703388B2, “Nitrogen-containing tricyclic compounds and drugs containing the same” (Eisai Co., Ltd., priority 1996, dated 2004).
Read-outs that look alike come from different tables or passages of the source.

What was measured:
[1] = tested on: human basophils; assay: Inhibition of mediator (histamine, peptide leukotriene) liberation from human basophils stimulated with mite antigen; format: cell-based; conditions: enzyme immunoassay
Procedure: 6 ml of 6% dextran (for separating leukocytes, having a high molecular weight) was added to 20 ml of heparinized blood. After stirring well, the resulting mixture was allowed to stand at 37° C. for 30 min and thus erythrocytes were precipitated. The upper layer was taken up and phosphate buffered saline (D-PBS) was added thereto followed by centrifugation at 185 g for 8 minutes to give a crude leukocyte fraction. These cells were subjected to hypotonic hematolysis and then suspended in D-PBS(+) containing 0.1%-BSA. The resulting suspension was used in the subsequent experiment as the leukocyte fraction containing basophils. 0.4 ml of this cell suspension was preliminarily heated to 37° C. for 5 min and then 0.05 ml of a specimen solution was added thereto followed by a pretreatment at 37° C. for 15 min. Next, 0.05 ml of a mite antigen solution was added thereto to induce an antigen-antibody reaction. After 10 min, the reaction was ceased by ice-cooling. Then the reaction mixture was centrifuged at 185 g for 10 min and histamine and peptide leukotrienes in the resulting supernatant were determined by using enzyme immunoassay kits. From the results of the assay, the activities of the acridone derivatives of inhibiting the liberation of histamine and peptide leukotriene were determined.

[2] = tested on: RBL-2H3 cells; assay: Inhibition of serotonin liberation from IgE-sensitized RBL-2H3 cells after antigen stimulation; format: cell-based, rat
Excerpt: IgE-sensitized RBL-2H3 cells (i.e., a cell line originating in rat cells) release and produce not only histamine and serotonin but also cytokines such as TNF α and prostaglandins which are inflammatory mediators after stimulation with IgE sepecific antibody. In this experimental system, inhibitory effects on various mediators release were examined by using serotonin as an indication.
The cells were beforehand labeled with [^3H]-labeled serotonin and, at the same time, sensitized with the IgE antibody. After incubating with the compounds of the present invention, the cells were stimulated with the specific antigen. Then the inhibitory activity of each compound was calculated from the amount of the [^3H]-labeled serotonin thus liberated into the medium and the amount of [^3H]-labeled serotonin liberated when no compound of the present invention was added.

[3] = histamine, read-out: IC50 (μM) in mediator liberation from human basophils: histamine
[4] = peptide leukotriene, read-out: IC50 (μM) in mediator liberation from human basophils: leukotriene
[5] = Rattus norvegicus, [3H]-serotonin release, IgE-sensitized RBL-2H3 cells, antigen stimulation, read-out: IC50 (μM) in serotonin liberation from RBL-2H3 cells
[6] = Rattus norvegicus, RBL-2H3, read-out: IC50 (μM) in serotonin liberation from RBL-2H3 cells

Structure (SMILES) | IC50 [2, 5] | also measured
Cc1ccc2c(c1C)N(CCCNCc1ccccc1O)c1ccccc1[S+]2[O-] (centres unmarked) [Example 23] | 2 µM | IC50 [1, 3]: 10 to 30 µM; IC50 [1, 4]: 10 to 30 µM
Cc1ccc2c(c1C)N(CCCNCc1cccc(O)c1)c1ccccc1[S+]2[O-] (centres unmarked) [Example 24] | 3 µM | IC50 [1, 3]: 10 to 30 µM; IC50 [1, 4]: 10 to 30 µM
Cc1ccc2c(c1C)N(CCCNCc1ccc(O)cc1)c1ccccc1[S+]2[O-] (centres unmarked) [Example 25] | 3 µM | IC50 [1, 3]: 30 µM; IC50 [1, 4]: 10 to 30 µM
Cc1ccc2c(c1C)N(CCCNCc1ccccc1)c1cc(-c3nn[nH]n3)ccc1[S+]2[O-] (centres unmarked) [Example 98] | 0.5 µM | –
COc1cc2c(c(C)c1C)N(CCCNCc1ccccc1)c1ccccc1[S+]2[O-] (centres unmarked) [Example 99] | 5 µM | –
COc1ccsc1CNCCCN1c2ccccc2[S+]([O-])c2c(C)cc(C)c(C)c21 (centres unmarked) [Example 101] | 5 µM | –
Cc1ccc2c(c1C)N(CCCN1CCOCC1)c1ccccc1[S+]2[O-] (centres unmarked) [Example 103, 1,2-Dimethyl-10-[3-(4-morpholino)propyl]phenothiazine-5Oxide] | < 3 µM | –
Cc1ccc2c(c1C)N(CCCN1CCC(O)CC1)c1ccccc1[S+]2[O-] (centres unmarked) [Example 106] | 2 µM | –
Cc1ccc2c(c1C)N(CCCN1CCC(N(C)C)CC1)c1ccccc1[S+]2[O-] (centres unmarked) [Example 107] | 2 µM | –
Cc1ccc2c(c1C)N(CCCN(CC(=O)O)Cc1ccccc1)c1ccccc1[S+]2[O-] (centres unmarked) [Example 109] | 3 µM | –
Cc1ccc2c(c1C)N(CCCN1CCN(Cc3ccccc3)C(C(=O)O)C1)c1ccccc1[S+]2[O-] (centres unmarked) [Example 110] | 1 µM | –
Cc1ccc2c(c1C)N(CCCN1CCN(C(C(=O)O)c3ccccc3)CC1)c1ccccc1[S+]2[O-] (centres unmarked) [Example 111] | 2 µM | –
Cc1ccc2c(c1C)N(CCCN1CCN(Cc3ccccn3)CC1)c1ccccc1[S+]2[O-] (centres unmarked) [Example 112] | 1 µM | –
Cc1ccc2c(c1C)N(CCCNc1ccccc1O)c1ccccc1[S+]2[O-] (centres unmarked) [Example 116] | 10 µM | –
Cc1ccc2c(c1C)N(CCCN1CCN(C(CO)c3ccccc3)CC1)c1ccccc1[S+]2[O-] (centres unmarked) [Example 117] | 2 µM | –
Cc1ccc2c(c1C)N(CCCNc1nc[nH]n1)c1ccccc1[S+]2[O-] (centres unmarked) [Example 118] | 10 µM | –
Cc1ccc2c(c1C)N(CCCn1cnc(N)n1)c1ccccc1[S+]2[O-] (centres unmarked) [Example 119] | 6 µM | –
Cc1ccc2c(c1C)N(CCCNCc1nccs1)c1ccccc1[S+]2[O-] (centres unmarked) [Example 120] | 3 µM | –
Cc1ccc2c(c1C)N(Cc1ccc(CN3CCC(C(=O)O)CC3)cc1)c1ccccc1[S+]2[O-] (centres unmarked) [Example 121] | 1 µM | –
C#CCNCCCN1c2ccccc2[S+]([O-])c2ccc(C)c(C)c21 (centres unmarked) [Example 126] | 3 µM | –
Cc1ccc2c(c1C)N(CCCNCC#N)c1ccccc1[S+]2[O-] (centres unmarked) [Example 130] | 3 µM | –
Cc1ccc2c(c1C)N(CCCN(CC#N)CC#N)c1ccccc1[S+]2[O-] (centres unmarked) [Example 131] | 3 µM | –
Cc1ccc2c(c1C)N(CCCNC(C(=O)O)c1ccccc1)c1ccccc1[S+]2[O-] (centres unmarked) [Example 133] | 1 µM | –

Structure (SMILES) | IC50 [2, 5] | also measured
Cc1ccc2c(c1C)N(CCCN(CC(=O)O)Cc1ccccc1O)c1ccccc1[S+]2[O-] (centres unmarked) [Example 135] | 2 µM | –
Cc1ccc2c(c1C)N(CCNCc1cc(C)c(O)c(C)c1)c1ccccc1[S+]2[O-] (centres unmarked) [Example 148] | 8 µM | –
COc1cc(CNCCN2c3ccccc3[S+]([O-])c3ccc(C)c(C)c32)cc(OC)c1O (centres unmarked) [Example 149] | 8 µM | –
Cc1ccc2c(c1C)N(CCNCc1ccc(Cl)c(O)c1Cl)c1ccccc1[S+]2[O-] (centres unmarked) [Example 153] | 6 µM | –
COCOc1cccnc1CNCCN1c2ccccc2[S+]([O-])c2ccc(C)c(C)c21 (centres unmarked) [Example 160] | 2 µM | –
Cc1ccc2c(c1C)N(CCCN(C)Cc1cc(Cl)cc(Cl)c1O)c1ccccc1[S+]2[O-] (centres unmarked) [Example 172] | 3 µM | –
Cc1ccc2c(c1C)N(CCCN(C)Cc1ccccc1O)c1cc(Cl)ccc1[S+]2[O-] (centres unmarked) [Example 186] | 10 µM | –
Cc1ccc2c(c1C)N(CCN1CCN(Cc3ccccc3)CC1)c1ccccc1[S+]2[O-] (centres unmarked) [Example 191, 1,2-Dimethyl-10-[2-(4-benzylpiperazin-1-yl)ethyl]-phenothiazine-5-oxide] | 3 µM | –
Cc1ccc2c(c1C)N(CCN1CCC(O)(c3ccccc3)CC1)c1ccccc1[S+]2[O-] (centres unmarked) [Example 192] | – | IC50 [2, 6]: 5 µM
Cc1ccc2c(c1C)N(CCNc1ccccc1O)c1ccccc1[S+]2[O-] (centres unmarked) [Example 194] | 10 µM | –
Cc1ccc2c(c1C)N(CCCN)c1cc(Br)ccc1S2(=O)=O [Example 197] | 8 µM | –
Cc1ccc2c(c1C)N(CCN1CCC(O)(c3ccccc3)CC1)c1ccccc1S2(=O)=O [Example 199] | – | IC50 [2, 6]: 10 µM
C=C1c2ccccc2N(CCCNCc2ccccc2)c2c1ccc(C)c2C [Example 206, 3,4-Dimethyl-9-methylene-10-(3-benzylaminopropyl)acridan] | 15 µM | –
CCC/C=C1/c2ccccc2N(CCCNCc2ccccc2)c2c1ccc(C)c2C [Example 207] | 15 µM | –
CO/N=c1\c2ccccc2n(CCCN)c2c(C)c(C)ccc12 [Example 208, (E,Z)-3,4-Dimethyl-10-(3-aminopropyl)-9-acridoneoxime-O-methyl Ether] | – | IC50 ([2]; [3H]-serotonin release, IgE-sensitized RBL-2H3 cells, antigen stimulation, read-out: IC50 (μM) in serotonin liberation from RBL-2H3 cells): 3 µM
Cc1ccc2c(=NO)c3ccccc3n(CCCN)c2c1C [Example 209] | 15 µM | –
CCCON=c1c2ccccc2n(CCCN)c2c(C)c(C)ccc12 [Example 211] | 10 µM | –
Cc1ccc2c(=NOCCc3ccccn3)c3ccccc3n(CCCN)c2c1C [Example 212] | 6 µM | –
Cc1ccc2c(=NOCC(=O)O)c3ccccc3n(CCCN)c2c1C [Example 215] | 3 µM | –
Cc1ccc2c(=NOCCC(=O)O)c3ccccc3n(CCCN)c2c1C [Example 216] | 3 µM | –
Cc1ccc2c(=NOC(C)C(=O)O)c3ccccc3n(CCCN)c2c1C (centres unmarked) [Example 217] | 2 µM | –
Cc1ccc2c(=NOCc3ccccn3)c3ccccc3n(CCCN)c2c1C [Example 220] | 6 µM | –
Cc1ccc2c(=NOCCCC(=O)N(C)C)c3ccccc3n(CCCN)c2c1C [Example 222] | 10 µM | –

Structure (SMILES) | IC50 [2, 5] | also measured
Cc1ccc2c(=NOC(C)C)c3ccccc3n(CCCN)c2c1C [Example 223] | 10 µM | –
Cc1ccc2c(=NO)c3ccccc3n(CCCNCc3ccccc3)c2c1C [Example 230] | 6 µM | –
CCCON=c1c2ccccc2n(CCCNCc2ccccc2)c2c(C)c(C)ccc12 [Example 232] | 10 µM | –
Cc1ccc2c(=NOCC(=O)O)c3ccccc3n(CCCNCc3ccccc3)c2c1C [Example 234] | < 3 µM | –
CCC(ON=c1c2ccccc2n(CCCNCc2ccccc2)c2c(C)c(C)ccc12)C(=O)O (centres unmarked) [Example 237] | 10 µM | –
Cc1ccc2c(=NOCc3ccccn3)c3ccccc3n(CCCNCc3ccccc3)c2c1C [Example 240] | 5 µM | –
Cc1ccc2c(=NOCCc3ccccn3)c3ccccc3n(CCCNCc3ccccc3)c2c1C [Example 241] | 4 µM | –
Cc1ccc2c(=NOCCCC(=O)O)c3ccccc3n(CCCNCc3ccccc3)c2c1C [Example 242] | 6 µM | –
Cc1ccc2c(=NOC(C)C)c3ccccc3n(CCCNCc3ccccc3)c2c1C [Example 243] | 6 µM | –
Cc1ccc2c(=NOCCC(=O)N(C)C)c3ccccc3n(CCCNCc3ccccc3)c2c1C [Example 244] | 3 µM | –
Cc1ccc2c(=NOCCC(=O)O)c3ccccc3n(CCCNCc3ccccc3O)c2c1C [Example 247] | 10 µM | –
Cc1ccc2c(=NOCC(C)(C)C(=O)O)c3ccccc3n(CCCNCc3ccccc3)c2c1C [Example 248] | 10 µM | –
Cc1ccccc1CNCCCn1c2ccccc2c(=NOCCC(=O)O)c2ccc(C)c(C)c21 [Example 249] | 10 µM | –
Cc1ccc2c(=NOCCC(N)=O)c3ccccc3n(CCCNCc3ccccc3)c2c1C [Example 251] | 5 µM | –
Cc1ccc2c(=NOC(C)C#N)c3ccccc3n(CCCNCc3ccccc3)c2c1C (centres unmarked) [Example 253] | 10 µM | –
Cc1ccc2c(=NOCCC(=O)O)c3ccccc3n(CCCN(C)Cc3ccccc3)c2c1C [Example 254] | 12 µM | –
CCON=c1c2ccccc2n(CCCNC(C)c2ccccc2)c2c(C)c(C)ccc12 (centres unmarked) [Example 255] | 8 µM | –
Cc1ccc2c(c1C)N(CCCN)c1ccccc1N(C)C2=O [Example 257] | 12 µM | –
Cc1ccc2c(c1C)N(CCCN)c1ccccc1C(=O)N2C [Example 258] | 6 µM | –
Cc1ccc2c(c1C)N(CCCNCc1ccccc1)c1ccccc1N(C)C2=O [Example 259] | 4 µM | –
Cc1ccc2c(c1C)N(CCCNCc1ccccc1)c1ccccc1C(=O)N2C [Example 260] | 6 µM | –
COC(=O)Cc1cccc2c1[S+]([O-])c1ccc(C)c(C)c1N2CCCNCc1ccccc1 (centres unmarked) [Example 261] | 10 µM | –
